Test results: ChEMBL document CHEMBL5325401, “Computer-aided identification, synthesis, and biological evaluation of DNA polymerase η inhibitors for the treatment of cancer” (Eur J Med Chem, 2023)
Values after ≈ are worked out from the molar mass of the structure shown. Active and inactive are the calls of the source. The calls are words filed in the database; no cut-off is given here.

Tests used:
[1] = molecular target: T1, DNA polymerase eta (Homo sapiens, UniProt Q9Y253); assay: Inhibition of C-terminal 6xHis-tagged human DNA polymerase eta (1 to 511 residues) expressed in Escherichia coli BL21 DE3 using 5'-IRD700-GCAGGTCGACTCCAAAG-3' primer/ 5'-TCGGTACCGGGTTAGCCTTTGGAGTCGACCTGC-3' template as DNA substrate incubated for 60 mins in presence of Mg2+ by bromophenol blue staining based assay
T1 sequence (Q9Y253 whole entry): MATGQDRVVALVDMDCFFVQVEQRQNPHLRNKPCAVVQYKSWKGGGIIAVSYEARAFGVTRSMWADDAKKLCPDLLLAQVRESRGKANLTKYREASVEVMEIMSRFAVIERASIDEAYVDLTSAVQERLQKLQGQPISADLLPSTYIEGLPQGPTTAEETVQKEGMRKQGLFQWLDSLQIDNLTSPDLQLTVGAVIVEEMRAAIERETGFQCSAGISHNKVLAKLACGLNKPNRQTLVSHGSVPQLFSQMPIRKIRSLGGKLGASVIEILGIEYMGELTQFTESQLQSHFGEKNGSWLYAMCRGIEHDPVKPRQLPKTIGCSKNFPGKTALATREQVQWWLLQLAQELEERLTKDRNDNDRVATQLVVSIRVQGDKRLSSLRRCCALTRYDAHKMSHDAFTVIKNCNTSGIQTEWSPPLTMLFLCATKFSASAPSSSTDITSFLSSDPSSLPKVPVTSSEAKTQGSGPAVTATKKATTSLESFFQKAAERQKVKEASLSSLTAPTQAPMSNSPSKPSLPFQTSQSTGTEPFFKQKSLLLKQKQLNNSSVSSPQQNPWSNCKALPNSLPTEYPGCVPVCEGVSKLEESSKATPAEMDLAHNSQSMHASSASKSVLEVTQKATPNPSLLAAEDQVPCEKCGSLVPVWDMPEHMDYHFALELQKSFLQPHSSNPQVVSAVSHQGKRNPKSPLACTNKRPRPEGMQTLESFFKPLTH

[2] = Kinetic solubility of compound in neutral buffer at pH 7.4 at 250 uM measured after 24 hrs by UPLC/MS analysis; assay type: physicochemical; details: read-out: Kinetic_solubility
[3] = Metabolic stability in mouse plasma assessed as half life at 2 uM incubated upto 120 mins by UPLC/MS analysis; assay type: ADME, cell-free
[4] = Metabolic stability in mouse liver microsome assessed as half life at 4.6 uM incubated upto 60 mins by LC/MS-MS analysis; assay type: ADME; details: liver microsomes
[5] = system: A549; assay: Antiproliferative activity against human A549 cells incubated for 48 hrs by MTT assay; assay type: functional; details: read-out: LD50 (the source's name)
[6] = system: A-375; assay: Antiproliferative activity against human A-375 cells incubated for 48 hrs by MTT assay; assay type: functional; details: read-out: LD50 (the source's name)
[7] = system: OVCAR-3; assay: Antiproliferative activity against human OVCAR-3 cells incubated for 48 hrs by MTT assay; assay type: functional; details: read-out: LD50 (the source's name)
[8] = (§1) Antiproliferative activity against HEK293 cells incubated for 48 hrs by MTT assay; assay type: toxicity, cell-based; details: human, HEK293 cells, read-out: LD50
[9] = system: A549; assay: Antiproliferative activity against human A549 cells assessed as cisplatin LD50 at 50 uM incubated for 48 hrs in presence of cisplatin by MTT assay; assay type: functional; details: read-out: LD50 (the source's name)
[10] = system: A549; assay: Antiproliferative activity against human A549 cells assessed as cisplatin LD50 at 100 uM incubated for 48 hrs in presence of cisplatin by MTT assay; assay type: functional; details: read-out: LD50 (the source's name)
[11] = system: A-375; assay: Antiproliferative activity against human A-375 cells assessed as cisplatin LD50 at 35 uM incubated for 48 hrs in presence of cisplatin by MTT assay; assay type: functional; details: read-out: LD50 (the source's name)
[12] = system: A-375; assay: Antiproliferative activity against human A-375 cells assessed as cisplatin LD50 at 50 uM incubated for 48 hrs in presence of cisplatin by MTT assay; assay type: functional; details: read-out: LD50 (the source's name)
[13] = system: OVCAR-3; assay: Antiproliferative activity against human OVCAR-3 cells assessed as cisplatin LD50 at 10 uM incubated for 48 hrs in presence of cisplatin by MTT assay; assay type: functional; details: read-out: LD50 (the source's name)
[14] = system: OVCAR-3; assay: Antiproliferative activity against human OVCAR-3 cells assessed as cisplatin LD50 at 50 uM incubated for 48 hrs in presence of cisplatin by MTT assay; assay type: functional; details: read-out: LD50 (the source's name)
[15] = system: OVCAR-3; assay: Antiproliferative activity against human OVCAR-3 cells assessed as cisplatin LD50 at 75 uM incubated for 48 hrs in presence of cisplatin by MTT assay; assay type: functional; details: read-out: LD50 (the source's name)
[16] = system: A-375; assay: Synergistic antiproliferative activity against human A-375 cells assessed as combination index at 35 uM incubated for 48 hrs in presence of 12.5 uM cisplatin by MTT assay; assay type: functional
[17] = system: A-375; assay: Synergistic antiproliferative activity against human A-375 cells assessed as combination index at 50 uM incubated for 48 hrs in presence of 12.5 uM cisplatin by MTT assay; assay type: functional
[18] = system: A-375; assay: Synergistic antiproliferative activity against human A-375 cells assessed as combination index at 35 uM incubated for 48 hrs in presence of 6 uM cisplatin by MTT assay; assay type: functional
[19] = system: A-375; assay: Synergistic antiproliferative activity against human A-375 cells assessed as combination index at 50 uM incubated for 48 hrs in presence of 6 uM cisplatin by MTT assay; assay type: functional
[20] = system: A549; assay: Synergistic antiproliferative activity against human A549 cells assessed as combination index at 50 uM incubated for 48 hrs in presence of 12.5 uM cisplatin by MTT assay; assay type: functional
[21] = system: A549; assay: Synergistic antiproliferative activity against human A549 cells assessed as combination index at 100 uM incubated for 48 hrs in presence of 12.5 uM cisplatin by MTT assay; assay type: functional
[22] = system: A549; assay: Synergistic antiproliferative activity against human A549 cells assessed as combination index at 50 uM incubated for 48 hrs in presence of 6 uM cisplatin by MTT assay; assay type: functional
[23] = system: A549; assay: Synergistic antiproliferative activity against human A549 cells assessed as combination index at 100 uM incubated for 48 hrs in presence of 6 uM cisplatin by MTT assay; assay type: functional
[24] = system: OVCAR-3; assay: Synergistic antiproliferative activity against human OVCAR-3 cells assessed as combination index at 50 uM incubated for 48 hrs in presence of 12.5 uM cisplatin by MTT assay; assay type: functional
[25] = system: OVCAR-3; assay: Synergistic antiproliferative activity against human OVCAR-3 cells assessed as combination index at 75 uM incubated for 48 hrs in presence of 12.5 uM cisplatin by MTT assay; assay type: functional
[26] = system: OVCAR-3; assay: Synergistic antiproliferative activity against human OVCAR-3 cells assessed as combination index at 50 uM incubated for 48 hrs in presence of 6 uM cisplatin by MTT assay; assay type: functional
[27] = system: OVCAR-3; assay: Synergistic antiproliferative activity against human OVCAR-3 cells assessed as combination index at 75 uM incubated for 48 hrs in presence of 6 uM cisplatin by MTT assay; assay type: functional
[28] = system: A-375; assay: Upregulation of phosphorylated gamma-H2AX level in human A375 cells at 30 uM incubated for 48 hrs by in presence of cisplatin by Western blot analysis; assay type: functional, cell-based
[29] = system: A-375; assay: Upregulation of phosphorylated gamma-H2AX level in human A375 cells incubated for 48 hrs by Western blot analysis; assay type: functional, cell-based; details: dose 30.0 µM
[30] = system: OVCAR-3; assay: Upregulation of phosphorylated gamma-H2AX level in human OVCAR-3 cells incubated for 48 hrs by Western blot analysis; assay type: functional, cell-based; details: dose 30.0 µM
[31] = Upregulation of phosphorylated gamma-H2AX level in human A375 cells assessed as fold increase in activity at 20 uM incubated for 24 hrs by in presence of cisplatin by immunofluorescence based microscopy relative to cisplatin; assay type: functional, A-375
[32] = Upregulation of phosphorylated gamma-H2AX level in human OVCAR-3 cells assessed as fold increase in activity at 20 uM incubated for 24 hrs by in presence of cisplatin by immunofluorescence based microscopy relative to cisplatin; assay type: functional
[33] = system: HEK293; assay: as §1; assay type: toxicity, cell-based; details: human, hek293, 48 h
[34] = Antiproliferative activity against HEK293 cells incubated for 72 hrs by MTT assay; assay type: toxicity, cell-based; details: human, read-out: LD50
[35] = system: A549; assay: Antiproliferative activity against human A549 cells assessed as cisplatin LD50 at 20 uM incubated for 48 hrs in presence of cisplatin by MTT assay; assay type: functional; details: read-out: LD50 (the source's name)
[36] = system: A549; assay: Antiproliferative activity against human A549 cells assessed as cisplatin LD50 at 30 uM incubated for 48 hrs in presence of cisplatin by MTT assay; assay type: functional; details: read-out: LD50 (the source's name)
[37] = system: A-375; assay: Antiproliferative activity against human A-375 cells assessed as cisplatin LD50 at 10 uM incubated for 48 hrs in presence of cisplatin by MTT assay; assay type: functional; details: read-out: LD50 (the source's name)
[38] = system: A-375; assay: Antiproliferative activity against human A-375 cells assessed as cisplatin LD50 at 20 uM incubated for 48 hrs in presence of cisplatin by MTT assay; assay type: functional; details: read-out: LD50 (the source's name)
[39] = system: A-375; assay: Antiproliferative activity against human A-375 cells assessed as cisplatin LD50 at 30 uM incubated for 48 hrs in presence of cisplatin by MTT assay; assay type: functional; details: read-out: LD50 (the source's name)
[40] = system: OVCAR-3; assay: Antiproliferative activity against human OVCAR-3 cells assessed as cisplatin LD50 at 5 uM incubated for 48 hrs in presence of cisplatin by MTT assay; assay type: functional; details: read-out: LD50 (the source's name)
[41] = system: A-375; assay: Additive antiproliferative activity against human A-375 cells assessed as combination index at 10 uM incubated for 48 hrs in presence of 6 uM cisplatin by MTT assay; assay type: functional
[42] = system: A549; assay: Antagonistic antiproliferative activity against human A549 cells assessed as combination index at 20 uM incubated for 48 hrs in presence of 12.5 uM cisplatin by MTT assay; assay type: functional
[43] = system: A549; assay: Additive antiproliferative activity against human A549 cells assessed as combination index at 30 uM incubated for 48 hrs in presence of 12.5 uM cisplatin by MTT assay; assay type: functional
[44] = system: A549; assay: Additive antiproliferative activity against human A549 cells assessed as combination index at 20 uM incubated for 48 hrs in presence of 6 uM cisplatin by MTT assay; assay type: functional
[45] = system: A549; assay: Additive antiproliferative activity against human A549 cells assessed as combination index at 30 uM incubated for 48 hrs in presence of 6 uM cisplatin by MTT assay; assay type: functional
[46] = system: OVCAR-3; assay: Antagonistic antiproliferative activity against human OVCAR-3 cells assessed as combination index at 10 uM incubated for 48 hrs in presence of 12.5 uM cisplatin by MTT assay; assay type: functional
[47] = system: OVCAR-3; assay: Additive antiproliferative activity against human OVCAR-3 cells assessed as combination index at 10 uM incubated for 48 hrs in presence of 6 uM cisplatin by MTT assay; assay type: functional

## O=c1c(OCCCO)c(-c2ccc(O)c(O)c2)oc2cc(O)cc(O)c12
[1]
  IC50: 14.7 µM
[2]
  solubility kinetic at 24 h, 250 µM: 231 µM (≈ 83.2 µg/mL)
[3]
  half-life at 2 µM: 90 min
[4]
  half-life at 4.6 µM: > 60 min
[5]
  CC50: > 100 µM
[6]
  CC50: > 100 µM
[7]
  CC50: > 100 µM
[8]
  CC50 at 48 h: > 100 µM
[9]
  CC50: 19.7 µM
[10]
  CC50: 9.4 µM
[11]
  CC50: 2600 nM
[12]
  CC50: 1000 nM
[13]
  CC50: 4.8 µM
[14]
  CC50: 2800 nM
[15]
  CC50: 270 nM
[16]
  CI: 0.78
[17]
  CI: 0.23
[18]
  CI: 0.66
[19]
  CI: 0.27
[20]
  CI: 0.8
[21]
  CI: 0.58
[22]
  CI: 0.78
[23]
  CI: 0.6
[24]
  CI: 0.78
[25]
  CI: 0.72
[26]
  CI: 0.52
[27]
  CI: 0.5
[28]
  Activity: Active
[29]
  Activity: Dose-Dependent Effect
[30]
  Activity: Dose-Dependent Effect
[31]
  fold change (FC): >2
[32]
  fold change (FC): >2

## COc1c(-c2ccc(O)c(O)c2)oc2cc(O)cc(O)c2c1=O [3-O-METHYLQUERCETIN]
[1]
  IC50: 10.8 µM
[2]
  solubility kinetic at 24 h, 250 µM: 229 µM (≈ 72.4 µg/mL)
[3]
  half-life at 2 µM: > 120 min
[4]
  half-life at 4.6 µM: > 60 min
[5]
  CC50: 60 µM
[6]
  CC50: 29 µM
[7]
  CC50: 5.2 µM
[33]
  Activity: Non-Toxic
[34]
  CC50 at 72 h: 30.5 µM
[35]
  CC50: 11.9 µM
[36]
  CC50: 7.4 µM
[37]
  CC50: 2000 nM
[38]
  CC50: 500 nM
[39]
  CC50: 400 nM
[13]
  CC50: 5.8 µM
[40]
  CC50: 4.8 µM
[17]
  CI: 0.78
[41]
  CI: 0.96
[42]
  CI: 1.24
[43]
  CI: 0.94
[44]
  CI: 1.03
[45]
  CI: 0.96
[46]
  CI: 2.33
[47]
  CI: 1.15
[31]
  fold change (FC): >2
[32]
  fold change (FC): >2
